Literature values as cited in patent US20180051069A1, “COMPOSITIONS AND METHODS FOR TREATING ALLERGIC INFLAMMATION” (THE GENERAL HOSPITAL CORPORATION, priority 2015, published 2018).

Tests used:
[1] = target: alpha-glucosidase amyloglucosidase (Aspergillus niger, UniProt P69328); conditions: read-out: 50% inhibition
[2] = tested on: alpha- or beta-mannosidase
[3] = tested on: alpha- or beta-galactosidase
Golgi mannosidase II = target: T1, Golgi mannosidase II (Homo sapiens, UniProt Q16706)
T1 sequence (Q16706 1-1144): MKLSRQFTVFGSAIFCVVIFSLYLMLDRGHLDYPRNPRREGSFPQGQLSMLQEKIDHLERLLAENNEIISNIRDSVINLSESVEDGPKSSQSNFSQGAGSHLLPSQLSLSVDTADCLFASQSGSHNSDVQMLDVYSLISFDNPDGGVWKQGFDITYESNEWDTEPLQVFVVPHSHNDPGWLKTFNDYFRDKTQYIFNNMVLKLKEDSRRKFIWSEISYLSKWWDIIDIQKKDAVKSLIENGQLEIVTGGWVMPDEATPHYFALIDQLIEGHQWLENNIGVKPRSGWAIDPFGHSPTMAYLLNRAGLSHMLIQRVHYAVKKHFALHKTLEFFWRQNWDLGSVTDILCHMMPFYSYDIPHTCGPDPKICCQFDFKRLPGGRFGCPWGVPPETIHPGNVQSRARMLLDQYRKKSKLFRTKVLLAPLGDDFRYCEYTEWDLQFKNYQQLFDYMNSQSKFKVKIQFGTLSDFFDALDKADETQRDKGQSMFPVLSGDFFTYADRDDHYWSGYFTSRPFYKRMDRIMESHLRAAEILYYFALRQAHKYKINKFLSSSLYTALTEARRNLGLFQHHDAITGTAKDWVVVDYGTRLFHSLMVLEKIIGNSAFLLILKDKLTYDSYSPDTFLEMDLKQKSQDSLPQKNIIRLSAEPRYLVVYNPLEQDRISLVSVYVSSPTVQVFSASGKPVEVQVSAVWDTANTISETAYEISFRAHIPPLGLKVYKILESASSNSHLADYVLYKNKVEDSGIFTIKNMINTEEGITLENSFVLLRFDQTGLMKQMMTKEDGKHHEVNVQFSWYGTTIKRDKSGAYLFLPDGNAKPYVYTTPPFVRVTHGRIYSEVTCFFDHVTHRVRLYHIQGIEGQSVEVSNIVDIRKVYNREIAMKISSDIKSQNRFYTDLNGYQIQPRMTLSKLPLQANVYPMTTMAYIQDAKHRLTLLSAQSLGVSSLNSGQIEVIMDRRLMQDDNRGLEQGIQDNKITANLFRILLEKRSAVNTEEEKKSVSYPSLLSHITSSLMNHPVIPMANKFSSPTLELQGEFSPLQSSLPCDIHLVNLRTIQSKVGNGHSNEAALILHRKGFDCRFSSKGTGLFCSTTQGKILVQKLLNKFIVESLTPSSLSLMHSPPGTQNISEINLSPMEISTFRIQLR

[4] = tested on: rat epididymal α-mannosidase

alpha-glucosidase amyloglucosidase, sequence (P69328 25-640): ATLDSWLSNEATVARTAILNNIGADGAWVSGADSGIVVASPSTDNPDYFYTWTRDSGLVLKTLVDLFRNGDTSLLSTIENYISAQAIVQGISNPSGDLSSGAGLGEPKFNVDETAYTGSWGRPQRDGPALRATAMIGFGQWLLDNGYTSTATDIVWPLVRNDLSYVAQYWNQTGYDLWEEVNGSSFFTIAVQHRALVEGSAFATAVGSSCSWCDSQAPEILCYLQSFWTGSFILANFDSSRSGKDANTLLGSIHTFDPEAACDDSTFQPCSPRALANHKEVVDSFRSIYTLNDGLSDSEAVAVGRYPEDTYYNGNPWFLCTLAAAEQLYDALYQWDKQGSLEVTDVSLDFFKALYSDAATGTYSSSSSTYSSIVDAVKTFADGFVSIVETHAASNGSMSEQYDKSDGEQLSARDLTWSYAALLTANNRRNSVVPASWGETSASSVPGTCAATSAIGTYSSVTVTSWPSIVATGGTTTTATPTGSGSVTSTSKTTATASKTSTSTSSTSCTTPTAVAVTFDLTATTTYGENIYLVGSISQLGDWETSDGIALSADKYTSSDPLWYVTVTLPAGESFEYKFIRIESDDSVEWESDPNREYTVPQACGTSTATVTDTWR

## O=C1N[C@@H]2[C@@H](O)[C@@H](O)[C@H](O)[C@@H](CO)N2C1=O [Kifunensine]
Mannosidase I
  effect on mannosidase I: inhibits
Cultured mammalian cells; added to cultured mammalian cells
  concentration causing complete shift of N-linked oligosaccharides from complex chains to Man9(GlcNAc)2 structures: ≥ 1 µg/mL

## OC[C@@H]1[C@@H](O)[C@H](O)[C@H]2[C@@H](O)CCN21 [Australine]
[1]
  IC50: 5.8 µM
beta-glucosidase
  inhibition of beta-glucosidase: does not inhibit
[2]
  inhibition of alpha- or beta-mannosidase: does not inhibit
[3]
  inhibition of alpha- or beta-galactosidase: does not inhibit

## O[C@H]1[C@H]2[C@H](O)CCCN2C[C@H]1O [Swainsonine]
Golgi mannosidase II
  inhibition of Golgi mannosidase II: potent inhibitor
Mannosidase I
  effect on mannosidase I: no effect

## OC[C@H]1NC[C@@H](O)[C@@H](O)[C@@H]1O [Deoxymannojirimycin]
Rat liver mannosidase I
  inhibition of rat liver mannosidase I: inhibitor
Cultured mammalian cells; intact cells
  effect on synthesis of N-linked oligosaccharides: blocked the synthesis of complex types of N-linked oligosaccharides

## O[C@H]1[C@H](O)[C@@H](O)CN2CC[C@H](O)[C@H]12 [Castanospermine]
alpha-glucosidase
  inhibition of alpha-glucosidase activities: inhibits

## CS[C@@H]1[C@@H](N)[C@@H](O)[C@@H](O)[C@H]1O [Mannostatin A]
[4]
  inhibition of rat epididymal α-mannosidase: reported to be an inhibitor
